From patent US20260226074A1, “FUNGICIDAL COMPOSITIONS” (SYNGENTA CROP PROTECTION AG, priority 2023, published 2026)

Columns and labels:
Assay type in all cases: cell-based
Conditions in all cases: single compound
[1] = tested on: Glomerella lagenarium Syn. Colletotrichum lagenarium; assay: Glomerella lagenarium growth inhibition in nutrient broth (microtiter plate, photometric, 72 hrs, 620 nm)
Description: (§1) Glomerella lagenarium Syn. Colletotrichum lagenarium (Anthracnose of Cucurbits); Conidia of the fungus from cryogenic storage were directly mixed into nutrient broth (PDB potato dextrose broth). A DMSO solution of the test compounds was placed into a microtiter plate (96-well format) and the nutrient broth containing the fungal spores was added to it. The test plates were incubated at 24 C and the inhibition of growth was determined photometrically after 72 hrs at 620 nm.

Sclerotinia sclerotiorum = Sclerotinia sclerotiorum growth inhibition in nutrient broth (microtiter plate, photometric, 72 hrs, 620 nm)
Description: Sclerotinia sclerotiorum (Cottony Rot, White Mold, Etc.); Mycelial fragments of the fungus prepared from a fresh liquid culture were directly mixed into nutrient broth (PDB potato dextrose broth). A DMSO solution of the test compounds was placed into a microtiter plate (96-well format) and the nutrient broth containing the fungal spores was added to it. The test plates were incubated at 24 C and the inhibition of growth was determined photometrically after 72 hrs at 620 nm

Septoria tritici = Septoria tritici growth inhibition in nutrient broth (microtiter plate, photometric, 72 hrs)
Description: as §1, with “Septoria tritici (Leaf Blotch):” for “Glomerella lagenarium Syn. Colletotrichum lagenarium (Anthracnose of Cucurbits);”, “hrs.” for “hrs at 620 nm.”

Alternaria solani = Alternaria solani growth inhibition in nutrient broth (microtiter plate, photometric, 48 hrs)
Description: as §1, with “Alternaria solani (Early Blight Tomato/Potato):” for “Glomerella lagenarium Syn. Colletotrichum lagenarium (Anthracnose of Cucurbits);”, “48 hrs.” for “72 hrs at 620 nm.”

[2] = tested on: Mycosphaerella arachidis Syn. Cercospora arachidicola; assay: Mycosphaerella arachidis growth inhibition in nutrient broth (microtiter plate, photometric, 5-6 days, 620 nm)
Description: as §1, with “Mycosphaerella arachidis” for “Glomerella lagenarium”, “Cercospora arachidicola (Brown Leaf Spot” for “Colletotrichum lagenarium (Anthracnose”, “Peanut):” for “Cucurbits);”, “5-6 days” for “72 hrs”, “nm” for “nm.”

CCn1nccc1-c1c(Cl)cccc1Cc1cc2ccc(F)c(F)c2nc1C [3-[[3-chloro-2-(2-ethylpyrazol-3-yl)phenyl]methyl]-7,8-difluoro-2-methyl-quinoline]
Observed Activity ([1]; 0.074 ppm): 20%
Observed Activity ([1]; 0.22 ppm): 90%
Observed Activity ([1]; 0.74 ppm): 20%
Observed Activity (Sclerotinia sclerotiorum; 2 ppm): 0%
Observed Activity (Sclerotinia sclerotiorum; 6 ppm): 20%

COC(=O)NCc1cc(/C(C)=N/OCc2cccc(C)n2)ccc1Cl [Pyribencarb, pyribencarb]
Observed Activity ([1]; 0.22 ppm): 20%
Observed Activity (Sclerotinia sclerotiorum; 0.008 ppm): 20%

CCCn1nccc1-c1c(Cl)cccc1Nc1cc2ccc(F)c(F)c2nc1C [N-[3-chloro-2-(2-propylpyrazol-3-yl)phenyl]-7,8-difluoro-2-methyl-quinolin-3-amine]
Observed Activity (Septoria tritici; 0.008 ppm): 0%
Observed Activity (Septoria tritici; 0.025 ppm): 0%
Observed Activity (Septoria tritici; 0.074 ppm): 20%
Observed Activity (Septoria tritici; 0.22 ppm): 20%
Observed Activity (Alternaria solani; 0.008 ppm): 0%
Observed Activity (Alternaria solani; 0.025 ppm): 20%
Observed Activity (Sclerotinia sclerotiorum; 0.66 ppm): 0%
Observed Activity (Sclerotinia sclerotiorum; 2 ppm): 0%

Cc1ccc(CC2CON=C(c3cc(C)nnc3Oc3cccc(Cl)c3F)N2)c(Cl)c1 (stereo not shown) [Compound A-1.1, 3-[3-(3-chloro-2-fluoro-phenoxy)-6-methyl-pyridazin-4-yl]-5-[(2-chloro-4-methyl-phenyl)methyl]-5,6-dihydro-4H-1,2,4-oxadiazine]
Observed Activity (Septoria tritici; 0.01 ppm): 0%
Observed Activity (Septoria tritici; 0.1 ppm): 0%
Observed Activity (Alternaria solani; 0.01 ppm): 50%
Observed Activity ([1]; 0.01 ppm): 20%
Observed Activity ([1]; 0.1 ppm): 90%

Cc1ccc(N(SC(F)(Cl)Cl)S(=O)(=O)N(C)C)cc1 [Tolylfluanid, tolylfluanid]
Observed Activity ([1]; 0.025 ppm): 20%
Observed Activity ([1]; 0.074 ppm): 50%
Observed Activity ([2]; 0.22 ppm): 20%
Observed Activity ([2]; 0.66 ppm): 90%
Observed Activity (Sclerotinia sclerotiorum; 0.025 ppm): 0%
Observed Activity (Sclerotinia sclerotiorum; 0.074 ppm): 0%
Observed Activity (Sclerotinia sclerotiorum; 0.22 ppm): 90%

Cn1nnnc1/C(=N\OCc1cccc(NC(=O)OC(C)(C)C)n1)c1ccccc1 [Picarbutrazox, picarbutrazox]
Observed Activity (Sclerotinia sclerotiorum; 6.66 ppm): 0%
Observed Activity (Sclerotinia sclerotiorum; 20 ppm): 0%

Cc1cc(C2=NOCC(Cc3ccc(Br)cc3C)N2)c(Oc2cccc(Cl)c2F)nn1 (stereo not shown) [Compound A-1.3, 5-[(4-bromo-2-methyl-phenyl)methyl]-3-[3-(3-chloro-2-fluoro-phenoxy)-6-methyl-pyridazin-4-yl]-5,6-dihydro-4H-1,2,4-oxadiazine]
Observed Activity (Septoria tritici; 0.2 ppm): 0%
Observed Activity ([1]; 0.02 ppm): 20%
Observed Activity ([1]; 0.2 ppm): 90%
Observed Activity ([2]; 0.02 ppm): 0%
Observed Activity ([2]; 0.2 ppm): 0%
Observed Activity (Sclerotinia sclerotiorum; 0.02 ppm): 20%
Observed Activity (Sclerotinia sclerotiorum; 0.2 ppm): 70%

CCn1nccc1-c1ccccc1Nc1nc2ccc(F)c(F)c2nc1C [N-[2-(2-ethylpyrazol-3-yl)phenyl]-5,6-difluoro-3-methyl-quinoxalin-2-amine]
Observed Activity (Alternaria solani; 0.08 ppm): 20%
Observed Activity (Alternaria solani; 0.246 ppm): 20%
Observed Activity (Alternaria solani; 0.74 ppm): 20%
Observed Activity (Sclerotinia sclerotiorum; 6.66 ppm): 0%
Observed Activity (Sclerotinia sclerotiorum; 20 ppm): 0%

CC(Oc1ccc(Cl)cc1Cl)C(=O)NC(C)(C#N)C(C)C (stereo not shown) [Fenoxanil, fenoxanil]
Observed Activity (Sclerotinia sclerotiorum; 2.22 ppm): 0%
Observed Activity (Sclerotinia sclerotiorum; 6.66 ppm): 0%
Observed Activity (Sclerotinia sclerotiorum; 20 ppm): 0%

CCCn1nccc1-c1c(F)cccc1Nc1nc2ccc(F)c(F)c2nc1C [5,6-difluoro-N-[3-fluoro-2-(2-propylpyrazol-3-yl)phenyl]-3-methyl-quinoxalin-2-amine]
Observed Activity (Alternaria solani; 0.25 ppm): 20%
Observed Activity (Alternaria solani; 0.74 ppm): 20%
Observed Activity ([1]; 0.66 ppm): 70%
Observed Activity (Sclerotinia sclerotiorum; 6.66 ppm): 0%
Observed Activity (Sclerotinia sclerotiorum; 20 ppm): 0%
